Experimental data published in paper PMC7586797, “Phase 1 Study to Evaluate the Effect of the Investigational Anticancer Agent Sapanisertib on the QTc Interval in Patients With Advanced Solid Tumors” (Clinical Pharmacology in Drug Development, 2020).
pIC50: −log10 of the molar value. Several values for one entry are separate records, joined by “and”; a condition that tells them apart may be missing. Equal entries are not always repeated.

How the values were obtained:
[1] = test system: human ether‐à‐go‐go channel; assay: In vitro hERG channel inhibition; assay type: biochemical; conditions: free Cmax 0.3 µM at 40 mg
[2] = test system: patients with advanced solid tumors; assay: Dedicated QTc study: serial triplicate Holter ECGs, change from time-matched baseline; assay type: in vivo, human; conditions: for LSM QTcF Change (95% UCB) from time-matched baseline / LSM QTcI Change (95% UCB) from time-matched baseline / LSM heart rate change (95% UCB) from time-matched baseline: 40 mg single oral dose
Description: The study was conducted at 5 centers across the United States (Montefiore Medical Center, Bronx, New York; Washington University School of Medicine, Saint Louis, Missouri; Stephenson Cancer Center, University of Oklahoma, Oklahoma City, Oklahoma; Mary Crowley Cancer Research Center, Dallas, Texas; and Florida Cancer Specialists/Sarah Cannon Research Institute, Sarasota, Florida) to evaluate the effect of a single oral dose of sapanisertib (40 mg) on the electrocardiographic QT/QTc interval in patients with advanced solid tumors (NCT02197572, clinicaltrials.gov). The primary end point was change from time‐matched baseline in the QTc interval (ΔQTc).
Patients reported to the study sites on day –1 for collection of serial baseline triplicate ECGs prior to sapanisertib administration (described in the ECG Assessments section). […] The patients were equipped with 12 ECG leads to continuously record patient ECG data onto a Holter H12+ ECG recorder. All procedures that were followed on day –1 were consistent with procedures expected for day 1, with the exception of plasma sample collection for PK assessments, since no sapanisertib was administered on day –1. After collection of the 10‐hour time point ECG on day –1, the patients were furloughed from the study site with Holter recorders still attached. These Holter recorders were to remain attached overnight to continue to collect ECG data into day 1.
On cycle 1 day 1, triplicate ECGs and plasma samples for PK were collected from patients ≤15 minutes prior to dosing and at 15 minutes; 30 minutes; and 1‐, 1.5‐, 2‐, 2.5‐, 3‐, 4‐, 6‐, 8‐, and 10‐hour time points after receiving a single oral dose of 40‐mg sapanisertib. The Holter recorders and ECG leads were removed from patients after collection of the 10‐hour time point ECG on day 1, following which patients were furloughed from site. Additional collections of ECGs and plasma samples for PK were conducted at 24 (cycle 1 day 2) and 48 hours (cycle 1 day 3) after dosing. After the first week, that is, cycle 1 day 8, patients had the option to continue to receive treatment with sapanisertib at a dose of 30 mg once weekly in continuous 28‐day cycles until disease progression, unacceptable toxicity, withdrawal of consent, or completion of the 12‐month maximum study duration.
To enable collection of time‐matched ECG and PK data before and after sapanisertib administration, patients reported to the study sites on day –1, during which ECG leads (12 leads) and Holter H12+ ECG recorders were attached. Each planned ECG collection time point was preceded by a 5‐minute supine rest period, after which triplicate ECGs were extracted from the Holter recorders at approximately 2‐ to 5‐minute intervals. Serial triplicate ECGs were collected from 0 to 10 hours, matched to the planned dosing on cycle 1 day 1 predose and postdose ECG and PK time points, to characterize the baseline ECG and QTc interval. All triplicate ECGs were extracted and read centrally (Biotelemetry, Malvern, Pennsylvania). All blood draws for PK were collected after the triplicate ECG collection period.
The baseline characterization of serial triplicate ECG allowed for patient‐specific individual heart rate correction (QTcI) in addition to the Fridericia's ( QTcF=QT/RR3 ) correction that is commonly used in clinical practice. The patient‐specific slopes were calculated using all pairs of QT and RR (time elapsing between two consecutive R waves in an ECG) interval data collected on day –1 and estimated using the linear regression expression: logQT=loga+b∗logRR to calculate the individual slope (b) for each patient. QTcI was then calculated as QTcI=QT/RR^b
ECG analysis was conducted in the primary analysis population, which included patients who had all time points collected on Holter ECG monitoring on day –1 and day 1 of cycle 1, including ECG time points collected on cycle 1 day 1 to cycle 1 day 3 at 24 or 48 hours after dosing that had available baseline comparisons. […]

[3] = test system: breast cancer‐ resistance protein; parameters: method as in Takeda data on file; conditions: in vitro; ref Takeda data on file; cited from earlier work
[4] = test system: human ether‐à‐go‐go channel; conditions: in vitro; cited from earlier work
CYP and UGT enzymes = test system: CYP and UGT enzymes; parameters: method as in Takeda, data on file; conditions: in vitro reaction phenotyping; ref Takeda, data on file; cited from earlier work
monkey = test system: monkey; parameters: method as in data on file; conditions: ref data on file, cited from earlier work
[5] = parameters: method as in Takeda, data on file; conditions: human hepatocytes; ref Takeda, data on file; cited from earlier work
[6] = after 40 mg dose, 32 evaluable patients

SMILES: CC(C)n1nc(-c2ccc3oc(N)nc3c2)c2c(N)ncnc21 [sapanisertib]
- hERG IC50 as multiple of anticipated free Cmax [1]: ~583 times
- LSM QTcF Change (95% UCB) from time-matched baseline ([2]; 0.25 h after dose): –1.7 (2.2) msec
- LSM QTcI Change (95% UCB) from time-matched baseline ([2]; 0.25 h after dose): –2.2 (2.2) msec
- LSM heart rate change (95% UCB) from time-matched baseline ([2]; 0.25 h after dose): –0.2 (2.2) bpm
- LSM QTcF Change (95% UCB) from time-matched baseline ([2]; 0.5 h after dose): –5.3 (–1.5) msec
- LSM QTcI Change (95% UCB) from time-matched baseline ([2]; 0.5 h after dose): –8.3 (–4.0) msec
- LSM heart rate change (95% UCB) from time-matched baseline ([2]; 0.5 h after dose): –4.4 (–1.9) bpm
- LSM QTcF Change (95% UCB) from time-matched baseline ([2]; 1 h after dose): 1.8 msec and 1.8 (5.6) msec
- LSM QTcI Change (95% UCB) from time-matched baseline ([2]; 1 h after dose): –1.8 (2.6) msec
- LSM heart rate change (95% UCB) from time-matched baseline ([2]; 1 h after dose): –3.8 (–1.4) bpm
- LSM QTcF Change (95% UCB) from time-matched baseline ([2]; 1.5 h after dose): 0.1 (4.0) msec
- LSM QTcI Change (95% UCB) from time-matched baseline ([2]; 1.5 h after dose): –2.7 (1.7) msec
- LSM heart rate change (95% UCB) from time-matched baseline ([2]; 1.5 h after dose): –3.3 (–0.9) bpm
- LSM QTcF Change (95% UCB) from time-matched baseline ([2]; 2 h after dose): –3.7 (0.1) msec
- LSM QTcI Change (95% UCB) from time-matched baseline ([2]; 2 h after dose): –5.0 (–0.6) msec
- LSM heart rate change (95% UCB) from time-matched baseline ([2]; 2 h after dose): –0.8 (1.5) bpm
- LSM QTcF Change (95% UCB) from time-matched baseline ([2]; 2.5 h after dose): –7.4 (–3.6) msec
- LSM QTcI Change (95% UCB) from time-matched baseline ([2]; 2.5 h after dose): –7.6 (–3.2) msec
- LSM heart rate change (95% UCB) from time-matched baseline ([2]; 2.5 h after dose): 0.1 (2.5) bpm
- LSM QTcF Change (95% UCB) from time-matched baseline ([2]; 3 h after dose): –7.6 (–3.7) msec
- LSM QTcI Change (95% UCB) from time-matched baseline ([2]; 3 h after dose): –9.1 (–4.6) msec
- LSM heart rate change (95% UCB) from time-matched baseline ([2]; 3 h after dose): –0.1 (2.3) bpm
- LSM QTcF Change (95% UCB) from time-matched baseline ([2]; 4 h after dose): –8.0 (–4.2) msec
- LSM QTcI Change (95% UCB) from time-matched baseline ([2]; 4 h after dose): –7.2 (–2.9) msec
- LSM heart rate change (95% UCB) from time-matched baseline ([2]; 4 h after dose): –0.2 (2.2) bpm
- LSM QTcF Change (95% UCB) from time-matched baseline ([2]; 6 h after dose): –10.1 (–6.4) msec
- LSM QTcI Change (95% UCB) from time-matched baseline ([2]; 6 h after dose): –8.8 (–4.6) msec
- LSM heart rate change (95% UCB) from time-matched baseline ([2]; 6 h after dose): 4.8 (7.1) bpm
- LSM QTcF Change (95% UCB) from time-matched baseline ([2]; 8 h after dose): –4.2 (–0.3) msec
- LSM QTcI Change (95% UCB) from time-matched baseline ([2]; 8 h after dose): –2.2 (2.4) msec
- LSM heart rate change (95% UCB) from time-matched baseline ([2]; 8 h after dose): 6.9 (9.4) bpm
- LSM QTcF Change (95% UCB) from time-matched baseline ([2]; 10 h after dose): –12.5 (–7.1) msec
- LSM QTcI Change (95% UCB) from time-matched baseline ([2]; 10 h after dose): –6.6 (–0.5) msec
- LSM heart rate change (95% UCB) from time-matched baseline ([2]; 10 h after dose): 8.6 bpm and 8.6 (12.1) bpm
- LSM QTcF Change (95% UCB) from time-matched baseline ([2]; 24 h after dose): 0.8 (4.5) msec
- LSM QTcI Change (95% UCB) from time-matched baseline ([2]; 24 h after dose): 7.1 msec and 7.1 (11.4) msec
- LSM heart rate change (95% UCB) from time-matched baseline ([2]; 24 h after dose): 12.4 bpm and 12.4 (14.7) bpm
- LSM QTcF Change (95% UCB) from time-matched baseline ([2]; 48 h after dose): 1.2 msec and 1.2 (5.8) msec
- LSM QTcI Change (95% UCB) from time-matched baseline ([2]; 48 h after dose): 2.8 (8.1) msec
- LSM heart rate change (95% UCB) from time-matched baseline ([2]; 48 h after dose): 5.4 (8.3) bpm
- Clinically relevant (>20 milliseconds) effect on the QT interval ([2]; 40 mg, patients with advanced solid tumors): does not produce clinically relevant (ie, >20 milliseconds) effects on the QT interval
- Patients with PR >200 msec [2, 6]: 1 (3.1) n (%)
- Patients with QRS >110 msec [2, 6]: 0 (0) n (%)
- Patients with QTcF >450 msec [2, 6]: 2 (6.3) n (%)
- Patients with QTcF >480 msec [2, 6]: 0 (0) n (%)
- Patients with QTcF >500 msec [2, 6]: 0 (0) n (%)
- Patients with QTcI >450 msec [2, 6]: 6 (18.8) n (%)
- Patients with QTcI >480 msec [2, 6]: 1 (3.1) n (%)
- Patients with QTcI >500 msec [2, 6]: 0 (0) n (%)
- Patients with ΔPR >25% at any time point [2, 6]: 1 (3.1) n (%)
- Patients with ΔQRS >25% at any time point [2, 6]: 0 (0) n (%)
- Patients with ΔQTcF >30 msec at any time point [2, 6]: 2 (6.3) n (%)
- Patients with ΔQTcF >60 msec at any time point [2, 6]: 0 (0) n (%)
- Patients with ΔQTcI >30 msec at any time point [2, 6]: 5 (15.6) n (%)
- Patients with ΔQTcI >60 msec at any time point [2, 6]: 1 (3.1) n (%)
- Patients with ΔQTcI between 30 and 60 milliseconds ([2]; after 40 mg dose, of the 6 patients with prolonged QTcI, 32 evaluable): 4 patients
- pIC50 [3]: 4.28
- pIC50 [4]: 3.76
- CYP enzymes participating in oxidative metabolism (CYP and UGT enzymes): CYP1A2, 3A4, and 2C19
- Estimated free Cmax (monkey; 0.5 mg/kg): 230 nM
- Electrocardiographic changes (monkey; single- or multiple-dose, up to 0.5 mg/kg): no remarkable electrocardiographic changes
- Share of hepatic metabolism mediated by cytochrome P450 (CYP) isozymes [5]: ~60%
- Share of hepatic metabolism mediated by other non-CYP enzymes [5]: ~20%
- Share of hepatic metabolism mediated by uridine 5'-diphospho-glucuronosyltransferases [5]: ~20%
